Reference: paper PMC4965013, “Open Source Drug Discovery with the Malaria Box Compound Collection for Neglected Diseases and Beyond” (PLoS Pathogens, 2016)
Values joined by “and” are separate entries in the source; they are usually repeats but may differ in a detail not shown here. Equal values may be shown once. Each block holds one compound with its values, some of them ahead of it.

Columns and labels:
[1] = test system: bovine Babesia and equine Babesia and Theileria parasites; test: Babesia and Theileria fluorescence-based assay, all four species; format: cell-based, B. bovis, B. bigemina, T. equi, B. caballi; conditions: for IC50: Babesia, range over compounds and species, read-out: IC50s for both bovine Babesia and equine Babesia and Theileria parasites
[2] = test system: P. falciparum 3D7 trophozoites; test: Metabolomic fingerprint profiling LC-MS; format: cell-based, Plasmodium falciparum; set-up: UDP-D-glucose / ADP-D-glucose: unit not given here; conditions: for Acetyllysine / N-acetyl-L-ornithine / N-carbamoyl-L-aspartate / NADPH / dAMP / dCMP / dTDP / dTMP / dTTP / dihydroorotate / orotate / DLH / DLS/SDL/SID / PD / PEE / PVNF / 3-phosphoglycerate / ADP-D-glucose / ATP / CDP / D-sedoheptulose-1/7-phosphate / FAD / GMP / NAD+ / NADP+ / Octoluse Bisphosphate / Pyroglutamic acid / UDP-D-glucose / UDP-D-glucuronate / UDP-N-acetyl-glucosamine / UDP / UMP / UTP / a-ketoglutarate / citrate/isocitrate / cytidine / dATP / dGMP/AMP / fumarate / glucose-1/6-phosphate / glycerate / guanine / guanosine / hypoxanthine / indole / inosine / nicotinate / ornithine / phosphoenolpyruvate / pyruvate / ribose-phosphate / sarcosine/alanine / sn-glycerol-3-phosphate / succinate/methylmalonic acid / uridine / xanthosine: S2 Table Metabolomics; for Acetyllysine: metabolite Acetyllysine; for N-acetyl-L-ornithine: metabolite N-acetyl-L-ornithine; for N-carbamoyl-L-aspartate: metabolite N-carbamoyl-L-aspartate; for NADPH: metabolite NADPH; for dAMP: metabolite dAMP; for dCMP: metabolite dCMP; for dTDP: metabolite dTDP; for dTMP: metabolite dTMP; for dTTP: metabolite dTTP; for dihydroorotate: metabolite dihydroorotate; for orotate: metabolite orotate; for DLH: peptide DLH; for DLS/SDL/SID: peptide DLS/SDL/SID; for PD: peptide PD; for PEE: peptide PEE; for PVNF: peptide PVNF; for 3-phosphoglycerate: metabolite 3-phosphoglycerate; for ADP-D-glucose: metabolite ADP-D-glucose; for ATP: metabolite ATP; for CDP: metabolite CDP; for CDP / D-sedoheptulose-1/7-phosphate / GMP / Octoluse Bisphosphate / UDP / UMP / UTP / citrate/isocitrate / dGMP/AMP / fumarate / glucose-1/6-phosphate / glycerate / guanine / guanosine / inosine / pyruvate / sarcosine/alanine / succinate/methylmalonic acid / uridine / xanthosine: change in metabolite level after compound treatment; for D-sedoheptulose-1/7-phosphate: metabolite D-sedoheptulose-1/7-phosphate; for FAD: metabolite FAD; for GMP: metabolite GMP; for NAD+: metabolite NAD+; for NADP+: metabolite NADP+; for Octoluse Bisphosphate: metabolite Octoluse Bisphosphate; for Pyroglutamic acid: metabolite Pyroglutamic acid; for UDP-D-glucose: metabolite UDP-D-glucose; for UDP-D-glucuronate: metabolite UDP-D-glucuronate; for UDP-N-acetyl-glucosamine: metabolite UDP-N-acetyl-glucosamine; for UDP: metabolite UDP; for UMP: metabolite UMP; for UTP: metabolite UTP; for a-ketoglutarate: metabolite a-ketoglutarate; for citrate/isocitrate: metabolite citrate/isocitrate; for cytidine: metabolite cytidine; for dATP: metabolite dATP; for dGMP/AMP: metabolite dGMP/AMP; for fumarate: metabolite fumarate; for glucose-1/6-phosphate: metabolite glucose-1/6-phosphate; for glycerate: metabolite glycerate; for guanine: metabolite guanine; for guanosine: metabolite guanosine; for hypoxanthine: metabolite hypoxanthine; for indole: metabolite indole; for inosine: metabolite inosine; for 2_3-Diphosphoglyceric acid / 4-phosphopantothenate / 6-phospho-D-gluconate / FMN / IMP / Pyrophosphate / Sedoheptoluse bisphosphate / cyclic-AMP / glutathione disulfide / lactate / myo-inositol: metabolite level change after treatment; for nicotinate: metabolite nicotinate; for ornithine: metabolite ornithine; for phosphoenolpyruvate: metabolite phosphoenolpyruvate; for pyruvate: metabolite pyruvate; for ribose-phosphate: metabolite ribose-phosphate; for sarcosine/alanine: metabolite sarcosine/alanine; for sn-glycerol-3-phosphate: metabolite sn-glycerol-3-phosphate; for succinate/methylmalonic acid: metabolite succinate/methylmalonic acid; for uridine: metabolite uridine; for xanthosine: metabolite xanthosine
PfPMT = PfPMT (Plasmodium falciparum, UniProt Q8IDQ9); test: PfPMT gene replacement yeast growth; conditions: 100µM
P. falciparum = test: EC50 listed in S2 Table Metabolomics (used to set the concentration tested); format: cell-based; conditions: Plasmodium falciparum; EC50 used for Factor_XEC50 in metabolomics; read-out: EC50_nM
[3] = test system: NCI60 human tumor cell lines; test: NCI60 5-dose (dose-response) assay; format: cell-based
Excerpt: Columns IE-KK. NCI: Misra group (data presented first in this paper). NCI60 anti-tumor cell activity. Methods: […] These 60 cell lines, along with others, have been developed at NCI and have been maintained and distributed for research purposes by NCI for over 25 years. The experimental readout provides both inhibition of cell growth and cell kill. The screen was originally designed to prioritize agents for further evaluation. […] This is the same as for the 5-dose assay, described on http://dtp.cancer.gov/branches/btb/ivclsp.html. […] Testing beyond the initial screen: There were 133 compounds that passed threshold to proceed to 5-dose (dose-response) (data are available for the 133 compounds at the DTP public website (dtp.cancer.gov) by searching either the MMV number or NSC number). After examination of the 5-dose data, 10 compounds were selected for repeat testing based generally on potency, differential cell activity or activity on an individual cell lines or cell line panel. A summary of the data for the 10 compounds of interest is in the table below.

[4] = mean over cell lines of one experiment, listed as 766470/2

PfPMT, sequence (Q8IDQ9 whole entry): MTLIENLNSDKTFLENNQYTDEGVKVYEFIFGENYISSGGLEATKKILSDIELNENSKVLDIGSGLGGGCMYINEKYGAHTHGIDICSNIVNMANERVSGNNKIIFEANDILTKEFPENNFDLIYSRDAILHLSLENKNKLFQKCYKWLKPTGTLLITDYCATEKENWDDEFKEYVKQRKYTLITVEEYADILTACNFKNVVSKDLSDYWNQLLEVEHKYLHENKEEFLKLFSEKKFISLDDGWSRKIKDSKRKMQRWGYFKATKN

- anti-Babesia and anti-Theileria hits, IC50 in words [1]: nanomolar IC50s
SMILES: CCOc1ccc(CN2CCN(CC(O)COc3ccc(OCC(O)CN4CCN(Cc5ccc(OCC)cc5)CC4)cc3)CC2)cc1 (centres unmarked) [MMV007092]

SMILES: CCc1ccc(Nc2cc(C)c3ccc(O)cc3n2)cc1 [MMV000570]
- Acetyllysine [2]: -3.5798
- N-acetyl-L-ornithine [2]: -2.11
- N-carbamoyl-L-aspartate [2]: -1.956
- NADPH [2]: 0.5669
- dAMP [2]: 0.09919
- dCMP [2]: -0.6377
- dTDP [2]: 0.1581
- dTMP [2]: 0.002348
- dTTP [2]: -0.746
- dihydroorotate [2]: -1.827
- orotate [2]: -1.158
- DLH [2]: -3.486
- DLS/SDL/SID [2]: -2.98
- PD [2]: -3.426
- PEE [2]: -2.976
- PVNF [2]: -3.666
- 3-phosphoglycerate [2]: -0.3004
- ADP-D-glucose [2]: -0.2531
- ATP [2]: -0.4297
- CDP [2]: 0.1199
- D-sedoheptulose-1/7-phosphate [2]: -0.03599
- FAD [2]: 0.02687
- GMP [2]: -0.7921
- NAD+ [2]: -0.005921
- NADP+ [2]: 0.04495
- Octoluse Bisphosphate [2]: -0.7521
- Pyroglutamic acid [2]: 0.02528
- UDP-D-glucose [2]: -0.0202
- UDP-D-glucuronate [2]: -0.1762
- UDP-N-acetyl-glucosamine [2]: -0.01786
- UDP [2]: 0.2064
- UMP [2]: -0.3865
- UTP [2]: -0.5565
- a-ketoglutarate [2]: -0.893
- citrate/isocitrate [2]: -0.9405
- cytidine [2]: 0.2459
- dATP [2]: 0.202
- dGMP/AMP [2]: 0.175
- fumarate [2]: -1.642
- glucose-1/6-phosphate [2]: -0.09278
- glycerate [2]: -0.2054
- guanine [2]: -0.06952
- guanosine [2]: -0.3954
- hypoxanthine [2]: 0.06102
- indole [2]: -0.08521
- inosine [2]: -0.1832
- 2_3-Diphosphoglyceric acid [2]: -0.3845
- 4-phosphopantothenate [2]: -0.2389
- 6-phospho-D-gluconate [2]: -0.3077
- FMN [2]: -0.01655
- IMP [2]: -0.277
- Pyrophosphate [2]: 0.07301
- Sedoheptoluse bisphosphate [2]: -0.5323
- cyclic-AMP [2]: -0.9231
- glutathione disulfide [2]: -0.5684
- lactate [2]: -0.3085
- myo-inositol [2]: -0.5155
- nicotinate [2]: 0.1664
- ornithine [2]: -0.4755
- phosphoenolpyruvate [2]: -0.0203
- pyruvate [2]: 0.06241
- ribose-phosphate [2]: -0.6825
- sarcosine/alanine [2]: -1.674
- sn-glycerol-3-phosphate [2]: -0.5868
- succinate/methylmalonic acid [2]: -0.5023
- uridine [2]: -0.4463
- xanthosine [2]: -1.566
- candidate inhibitors of PfPMT activity (yeast functional assay) (PfPMT): candidate inhibitors of PfPMT activity
- EC50 (P. falciparum): 194 nM

- anti-Babesia and anti-Theileria hits, IC50 in words [1]: nanomolar IC50s
- IC50 [1]: 43 to 750 nM
SMILES: CN(C)c1ccc(N=Cc2ccc(N3CCOCC3)cc2)cc1 [MMV073843]
- mean selectivity indices (SI) [1]: greater than 230

- anti-Babesia and anti-Theileria hits, IC50 in words [1]: nanomolar IC50s
- IC50 [1]: 43 to 750 nM
SMILES: Cc1cc(N2CCN(C3CCCC3)CC2)n2c(nc3ccccc32)c1C#N [MMV006706]
- mean selectivity indices (SI) [1]: greater than 230

- anti-Babesia and anti-Theileria hits, IC50 in words [1]: nanomolar IC50s
- IC50 [1]: 43 to 750 nM
SMILES: Cn1c(=O)n(C)c2cc(CNCCNc3ccnc4cc(Cl)ccc34)ccc21 [MMV665875]
- mean selectivity indices (SI) [1]: greater than 230

SMILES: COc1ccc(-c2nc3cc(Cc4ccc5[nH]c(-c6ccc(OC)cc6)nc5c4)ccc3[nH]2)cc1 [MMV007384]
- Acetyllysine [2]: -1.262
- N-acetyl-L-ornithine [2]: -1.162
- N-carbamoyl-L-aspartate [2]: -0.09766
- NADPH [2]: -0.9181
- dAMP [2]: 0.6855
- dCMP [2]: 0.07883
- dTDP [2]: 0.07329
- dTMP [2]: 0.1259
- dTTP [2]: -0.4561
- dihydroorotate [2]: 0.3461
- orotate [2]: 0.3571
- DLH [2]: -1.971
- DLS/SDL/SID [2]: -1.761
- PD [2]: -1.296
- PEE [2]: -1.3661
- PVNF [2]: -1.589
- 3-phosphoglycerate [2]: -0.215
- ADP-D-glucose [2]: -0.07535
- ATP [2]: -0.4674
- CDP [2]: -0.349
- D-sedoheptulose-1/7-phosphate [2]: -0.5757
- FAD [2]: -0.3245
- GMP [2]: -0.4418
- NAD+ [2]: -0.0839
- NADP+ [2]: -0.1415
- Octoluse Bisphosphate [2]: -0.7079
- Pyroglutamic acid [2]: 1.1726
- UDP-D-glucose [2]: -0.1169
- UDP-D-glucuronate [2]: -0.3283
- UDP-N-acetyl-glucosamine [2]: -0.1799
- UDP [2]: -0.2172
- UMP [2]: -0.3886
- UTP [2]: -0.61
- a-ketoglutarate [2]: 0.7257
- citrate/isocitrate [2]: 1.281
- cytidine [2]: 0.03237
- dATP [2]: -0.2668
- dGMP/AMP [2]: 0.1319
- fumarate [2]: 0.03505
- glucose-1/6-phosphate [2]: 0.02257
- glycerate [2]: 0.3902
- guanine [2]: 0.5342
- guanosine [2]: 0.3398
- hypoxanthine [2]: 1.128
- indole [2]: 0.6274
- inosine [2]: 0.7464
- 2_3-Diphosphoglyceric acid [2]: -0.7853
- 4-phosphopantothenate [2]: 0.02171
- 6-phospho-D-gluconate [2]: -0.4966
- FMN [2]: -0.1132
- IMP [2]: -0.008592
- Pyrophosphate [2]: -0.8081
- Sedoheptoluse bisphosphate [2]: -0.4298
- cyclic-AMP [2]: -0.3368
- glutathione disulfide [2]: -0.6284
- lactate [2]: 0.4073
- myo-inositol [2]: -0.09775
- nicotinate [2]: 1.038
- ornithine [2]: 0.535
- phosphoenolpyruvate [2]: 0.008692
- pyruvate [2]: 0.9693
- ribose-phosphate [2]: -0.5692
- sarcosine/alanine [2]: -0.2789
- sn-glycerol-3-phosphate [2]: -0.4175
- succinate/methylmalonic acid [2]: -0.1567
- uridine [2]: 0.8329
- xanthosine [2]: 0.2641
- candidate inhibitors of PfPMT activity (yeast functional assay) (PfPMT): candidate inhibitors of PfPMT activity
- EC50 (P. falciparum): 176 nM
- Notes (NCI60 5-dose activity pattern) [3]: Colon, differential, potent
- MGLI50 = Mean Growth Log I50 ([3]; 5-dose, mean over NCI60 panel): -7.34
- _MID Log10GI50 [3, 4]: -7.42 Molar and -7.34 Molar
- _MID Log10LC50 [3, 4]: -5.38 Molar and -5.32 Molar
- _MID Log10TGI [3, 4]: -6.22 Molar and -6.17 Molar

- anti-Babesia and anti-Theileria hits, IC50 in words [1]: nanomolar IC50s
- IC50 [1]: 43 to 750 nM
SMILES: CCCC(c1nnnn1C1CCCCC1)N1CCN(C(=O)c2ccco2)CC1 (centres unmarked) [MMV666093]
- mean selectivity indices (SI) [1]: greater than 230

- anti-Babesia and anti-Theileria hits, IC50 in words [1]: nanomolar IC50s
SMILES: CC(C)(C)CC(C)(C)NCC(O)COc1ccc(Cl)cc1Cl (centres unmarked) [MMV396794]

- anti-Babesia and anti-Theileria hits, IC50 in words [1]: nanomolar IC50s
SMILES: CC(C)CCNCC(O)Cn1c2ccccc2c2ccccc21 (centres unmarked) [MMV006787]
